Values quoted from earlier work in patent US6653351B2, “Adjuvant chemotherapy for anaplastic gliomas” (priority 2001, dated 2003).
Structures can show the parent of a compound that is named as a salt.

Conditions: in vivo

Row | SMILES | crossing of the blood brain barrier
1 | O=NN(CCCl)C(=O)NC1CCCCC1 [Lomustine, 1-(2-chloroethyl)-3-cyclohexyl-1-nitrosourea] | crosses the blood brain barrier
2 | CC[C@]1(O)C[C@H]2CN(CCc3c([nH]c4ccccc34)[C@@](C(=O)OC)(c3cc4c(cc3OC)N(C=O)[C@H]3[C@@](O)(C(=O)OC)[C@H](OC(C)=O)[C@]5(CC)C=CCN6CC[C@]43[C@@H]65)C2)C1 [Vincristine, vincaleukoblastine, a 22-oxo-, sulfate (1:1) (salt)] | does not appear to cross the blood brain barrier
